Patent publication US20220047719A1, “ENHANCING SUBCUTANEOUS INJECTION AND TARGET TISSUE ACCUMULATION OF NANOPARTICLES VIA CO-ADMINISTRATION WITH MACROPINOCYTOSIS INHIBITORY NANOPARTICLES (MINP)” (Northwestern University, priority 2020, published 2022)

Assays:
[1] = test system: B16F10 melanoma cells; test: LatA inhibition of E-MC and E-MC(FA) uptake; assay type: cell-based, mouse; settings: 0.5 μM LatA 2 h, then 30 min micelles
Method: FIG. 10. […] B16F10 melanoma cells were treated with 0.5 μM LatA for 2 h followed by 30 min of incubation with either non-targeted E-MC or folate receptor targeted E-MC(FA) prior to analysis by flow cytometry. Data are shown as percentage inhibition of endocytosis normalized to untreated […]. N=3, p<0.001.

[2] = test system: RAW264.7 macrophages; test: Macropinocytosis inhibition, dextran-pHrodo uptake by flow cytometry; assay type: cell-based; settings: 2 h inhibitor, then 30 min dye
Method: (§1) FIG. 2. […] (a) Cryogenic transmission electron microscopy (CryoTEM) of MiNP visually confirms retention of micellar structures. (b) MiNP with ((+) MiNP) and without ((−) MiNP) loaded LatA were characterized via small angle X-ray scattering (SAXS) and fitted with a micelle model fit using SASView. […] Cells were treated with each inhibitor for 2 h followed by 30 min of incubation with pHrodo dextran prior to analysis by flow cytometry. Data are shown as a percentile scale of endocytosis inhibition. On this scale, 0% represents standard cell uptake with no inhibitor, while 100% represents complete inhibition with no uptake of dye. N=3, p<0.001. […] N=3, p<0.001. […] Macrophages were incubated with various doses of free LatA or (+) MiNP for 4 h and assessed by flow cytometry for viability via the Zombie Aqua live/dead assay. N=3, p<0.05.
(§2) To investigate macropinocytosis inhibition by MiNP and determine whether this inhibition still permits uptake via receptor-mediated endocytosis, (+) MiNP were compared to chlorpromazine, an inhibitor of receptor-mediated endocytosis. These distinct mechanisms of endocytosis were evaluated using dextran conjugated pHrodo dye and transferrin conjugated pHrodo dye to respectively quantify effects of (+) MiNP and chlorpromazine on macropinocytosis (dextran) and receptor-mediated endocytosis (transferrin). […]

[3] = test system: RAW264.7 macrophages; test: In vitro macrophage cytotoxicity, Zombie Aqua live/dead assay; assay type: cell-based; settings: free drug
Method: as §1, §2

[4] = test system: RAW264.7 macrophages; test: Receptor-mediated endocytosis, transferrin-pHrodo uptake by flow cytometry; assay type: cell-based; settings: 2 h inhibitor, then 30 min dye
Method: as §1, §2

| SMILES | inhibition of endocytosis of E-MC vs E-MC(FA) [1] | inhibition of dextran-pHrodo uptake (macropinocytosis) [2] | inhibition of dextran-pHrodo uptake (macropinocytosis) ([2]; listed as Free LatA) | doses with significant toxicity to macrophages [3] [µM] | inhibition of transferrin-pHrodo uptake (receptor-mediated endocytosis) [4] | inhibition of transferrin-pHrodo uptake (receptor-mediated endocytosis) ([4]; listed as chlorpromazine) |
| --- | --- | --- | --- | --- | --- | --- |
| C/C1=C/C(=O)O[C@@H]2C[C@@H](CC[C@H](C)/C=C\C=C\CC1)O[C@@](O)([C@@H]1CSC(=O)N1)C2 [free LatA, latrunculin A] | inhibits uptake of non-targeted E-MC more than targeted E-MC(FA) | much stronger inhibition of uptake than free chlorpromazine | significantly inhibited macropinocytosis | ≥ 0.5 |  |  |
| CN(C)CCCN1c2ccccc2Sc2ccc(Cl)cc21 [free chlorpromazine, chlorpromazine] |  |  |  |  | significantly inhibited endocytosis | significantly inhibited |
